Results on two molecules are retold here after patent US6399100B1, “Controlled release pharmaceutical compositions containing tiagabine” (Elan Corporation, plc, priority 1997, dated 2002).

SMILES strings stand for the structures.

The conditions of data set [1]: cited from earlier work.
For data set [2] the following is noted: four hours after ingestion, deliberate overdose; cited from earlier work.
The nature of data set [3]: Aqueous solubility of raw material. From the text: The tiagabine employed in the following examples is the monohydrate crystalline form for the hydrochloride salt of the R isomer.

Regarding `Cc1ccsc1C(=CCCN1CCCC(C(=O)O)C1)c1sccc1C` (centres unmarked) [tiagabine, N-(4,4-di(3-methylthien-2-yl)but-3-enyl) nipecotic acid], the half-life (commonly how long it takes for the measured level to halve) in data set [1] (in humans) is 5 to 8 h. For the same molecule, in data set [1] (lowered by enzyme inducers), the elimination half-life is 2 to 3 h. For the same molecule, in data set [2], the Plasma levels is 3100 ng/mL and the “plasma level relative to typical steady state therapeutic dosing levels” value is on record as 30 times.
As to `Cc1ccsc1C(=CCCN1CCCC(C(=O)O)C1)c1sccc1C.Cl` (centres unmarked) [tiagabine hydrochloride monohydrate, N-(4,4-di(3-methylthien-2-yl)but-3-enyl) nipecotic acid hydrochloride], the aqueous solubility result in data set [3] is given as “high”.
